Marks after values point to notes of the source that are not given here.
Columns and labels:
Format in all cases: cell-based
CB2 [1] = target: T1, CB2 (Homo sapiens, UniProt P34972, Q63R); test: β-arrestin 1 translocation real-time BRET assay; conditions: for EC50: pEC50, β-arrestin 1 translocation to CB2, HEK 293 cells; for pEC50, β-arrestin 1 translocation to CB2: HEK 293 cells
CB2 [2] = target: T1, CB2; test: β-arrestin 2 translocation real-time BRET assay, wild-type CB2; conditions: for pEC50, β-arrestin 2 translocation to CB2: HEK 293 cells
CB2 [3] = target: T1, CB2; test: β-arrestin 1 translocation real-time BRET assay; conditions: HEK 293 cells
CB2 [4] = target: T1, CB2; test: β-arrestin 2 translocation real-time BRET assay, wild-type CB2; conditions: for Span, β-arrestin 2 translocation to CB2: HEK 293 cells

T1 sequence (P34972 whole entry Q63R): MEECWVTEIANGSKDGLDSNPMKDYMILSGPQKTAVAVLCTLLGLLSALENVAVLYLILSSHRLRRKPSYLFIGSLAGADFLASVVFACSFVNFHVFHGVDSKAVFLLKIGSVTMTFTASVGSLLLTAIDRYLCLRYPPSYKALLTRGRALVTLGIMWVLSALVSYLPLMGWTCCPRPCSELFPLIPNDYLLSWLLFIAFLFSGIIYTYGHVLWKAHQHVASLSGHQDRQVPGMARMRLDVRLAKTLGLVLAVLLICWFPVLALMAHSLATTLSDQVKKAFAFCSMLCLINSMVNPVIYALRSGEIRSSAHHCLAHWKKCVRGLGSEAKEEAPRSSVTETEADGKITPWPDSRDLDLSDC

Row | SMILES | Span, β-arrestin 1 translocation to CB2 (CB2 [3]; coexpression of GRK1) | Span, β-arrestin 1 translocation to CB2 (CB2 [3]; coexpression of GRK2) | Span, β-arrestin 1 translocation to CB2 (CB2 [3]; coexpression of GRK3) | Span, β-arrestin 1 translocation to CB2 (CB2 [3]; coexpression of GRK4) | Span, β-arrestin 1 translocation to CB2 (CB2 [3]; coexpression of GRK5) | Span, β-arrestin 1 translocation to CB2 (CB2 [3]; coexpression of GRK6) | Span, β-arrestin 1 translocation to CB2 (CB2 [3]; mock (no GRK)) | Span, β-arrestin 2 translocation to CB2 (CB2 [4]; coexpression of GRK1, Table 2) | Span, β-arrestin 2 translocation to CB2 (CB2 [4]; coexpression of GRK2, Table 2) | Span, β-arrestin 2 translocation to CB2 (CB2 [4]; coexpression of GRK3, Table 2) | Span, β-arrestin 2 translocation to CB2 (CB2 [4]; coexpression of GRK4, Table 2) | Span, β-arrestin 2 translocation to CB2 (CB2 [4]; coexpression of GRK5, Table 2) | Span, β-arrestin 2 translocation to CB2 (CB2 [4]; coexpression of GRK6, Table 2) | Span, β-arrestin 2 translocation to CB2 (CB2 [4]; mock (no GRK), Table 2) | further results
1 | CCCCC/C=C\C/C=C\C/C=C\C/C=C\CCCC(=O)OC(CO)CO [2-AG, 2-Arachidonoylglycerol] | 83.57 (2.82) ^* ΔBRET.s | 71.73 (3.39) ^* ΔBRET.s | 68.57 (2.99) ^* ΔBRET.s | 62.00 (2.72) ΔBRET.s | 65.96 (1.69) ^* ΔBRET.s | 74.27 (4.00) ^* ΔBRET.s | 56.14 (1.52) ΔBRET.s | 198.6 (8.08) ΔBRET.s | 165.5 (10.92) ^* ΔBRET.s | 164.7 (9.83) ^* ΔBRET.s | 191.3 (6.31) ΔBRET.s | 157.1 (4.07) ^* ΔBRET.s | 158.6 (6.39) ^* ΔBRET.s | 204.9 (14.67) ΔBRET.s | EC50 (CB2 [1]; coexpression of GRK1): 3.24 µM; EC50 (CB2 [1]; coexpression of GRK2): 2.29 µM; EC50 (CB2 [1]; coexpression of GRK3): 2 µM; EC50 (CB2 [1]; coexpression of GRK4): 2.88 µM; EC50 (CB2 [1]; coexpression of GRK5): 3.63 µM; EC50 (CB2 [1]; coexpression of GRK6): 3.31 µM; EC50 (CB2 [1]; mock (no GRK)): 3.55 µM; EC50 (CB2 [2]; pEC50, β-arrestin 2 translocation to CB2, HEK 293 cells, mock (no GRK), Table 2): 2.29 µM; lowering of efficacy of β-arrestin 2 translocation by GRK coexpression (CB2 [4]; coexpression of GRK2, GRK3 and GRK5 versus mock): 10–20%
2 | COC(=O)[C@@H](NC(=O)c1nn(Cc2ccc(F)cc2)c2ccccc12)C(C)C [AMB-FUBINACA] | 47.12 (3.44) ^* ΔBRET.s | 45.12 (2.90) ^* ΔBRET.s | 46.69 (1.39) ^* ΔBRET.s | 35.06 (2.32) ΔBRET.s | 38.17 (1.55) ΔBRET.s | 44.72 (3.21) ^* ΔBRET.s | 29.34 (2.43) ΔBRET.s | 134.2 (11.15) ΔBRET.s | 123.2 (9.45) ΔBRET.s | 119.0 (9.10) ΔBRET.s | 126.6 (9.03) ΔBRET.s | 114.6 (5.98) ΔBRET.s | 125.8 (10.37) ΔBRET.s | 123.9 (8.36) ΔBRET.s | pEC50, β-arrestin 1 translocation to CB2 (CB2 [1]; coexpression of GRK1): 7.97 (0.13); pEC50, β-arrestin 1 translocation to CB2 (CB2 [1]; coexpression of GRK2): 8.16 (0.09); pEC50, β-arrestin 1 translocation to CB2 (CB2 [1]; coexpression of GRK3): 8.26 (0.07) ^*; pEC50, β-arrestin 1 translocation to CB2 (CB2 [1]; coexpression of GRK4): 7.98 (0.18); pEC50, β-arrestin 1 translocation to CB2 (CB2 [1]; coexpression of GRK5): 7.97 (0.11); pEC50, β-arrestin 1 translocation to CB2 (CB2 [1]; coexpression of GRK6): 8.01 (0.18); pEC50, β-arrestin 1 translocation to CB2 (CB2 [1]; mock (no GRK)): 7.94 (0.10); β-arrestin 1 translocation to CB2 (in words) (CB2 [1]; absence of exogenous GRKs): submaximal translocation; pEC50, β-arrestin 2 translocation to CB2 (CB2 [2]; coexpression of GRK1, Table 2): 8.03 (0.06); pEC50, β-arrestin 2 translocation to CB2 (CB2 [2]; coexpression of GRK2, Table 2): 8.28 (0.05) ^*; pEC50, β-arrestin 2 translocation to CB2 (CB2 [2]; coexpression of GRK3, Table 2): 8.17 (0.11); pEC50, β-arrestin 2 translocation to CB2 (CB2 [2]; coexpression of GRK4, Table 2): 8.13 (0.03); pEC50, β-arrestin 2 translocation to CB2 (CB2 [2]; coexpression of GRK5, Table 2): 8.07 (0.07); pEC50, β-arrestin 2 translocation to CB2 (CB2 [2]; coexpression of GRK6, Table 2): 8.12 (0.04); pEC50, β-arrestin 2 translocation to CB2 (CB2 [2]; mock (no GRK), Table 2): 8.15 (0.06); β-arrestin 2 translocation to CB2 (in words) (CB2 [2]; absence of exogenous GRKs): submaximal translocation
